Reference: patent US8003082B2, “Photostable organic sunscreen composition” (Merck Patent GmbH, priority 2003, dated 2011)
Blank lines part the entries; values can stand above or below the molecule they belong to.

How the values were obtained:
[1] = Diphenylpicryl Hydrazide (DPPH) antioxidant test; assay type: biochemical; settings: DPPH test method
Protocol: Di-2-ethylhexyl-3,5-dimethoxy-4-hydroxy-benzalmalonate is a yellow viscous liquid having a λmax at 332 nm (MeOH, εmax 18,600 cm^−1 mol^−1) or 337 nm (EtOH:H2O/70:30, εmax 19,840 cm^−1 mol^−1).
A DPPH concentrate (2.5×) of 25 mg of 1,1-Diphenyl-2-Picyrl-Hydrazyl ACS#1898-66-4 (Sigma #D-9132, lot 99H3601) dissolved in 250 mL ethanol (USP), is prepared fresh on the measurement date. A DPPH working solution is then prepared by diluting 100 mL of this concentrate to a final volume of 250 mL (100 μM/mL). A blank 13×100 mm borosilicate glass screw top tube of ethanol (USP) is used to zero the spectrometer (Milton Roy, Spectronic 20+) at 517 nm and a control tube of DPPH working solution is measured under identical conditions, and taken as 0% activity. […] After 20 minutes, the absorbance of each sample is read at 517 nm.
The percent reducing activity (% RA) is calculated using the following equation: […]
Where A(0) is the absorbance value of the DPPH working solution at 517 nm zeroed against an ethanol blank and A(20) is the absorbance at 517 nm, 20 minutes after combining the antioxidant with the DPPH working solution.
The concentration of antioxidant (mg/ml) in the final assay mixture is calculated based on the dilution of respective aliquots of each compound in the final assay volume and % RA tabulated and plotted as percent activity at each concentration in the dilution series: […]

[2] = Photostabilization of Avobenzone in formulation, thin films between glass slides under UV-B light, loss in absorption; assay type: physicochemical
Protocol: Photostabilization of Avobenzone (in formulation) was performed using thin films (about 50-100μ thick, transmission signals in the non-absorbing regions must be above 85%) of formulated materials placed between two glass slides and then irradiated under UV-B light (Q-U-V Accelerated Weather Tester, The Q Panel Company). Photodegradation of Avobenzone was calculated from the relative loss in absorption of Avobenzone in formulated products before and after irradiation. 1 hour irradiation under UV-B light is equal to about 1.4 MED (minimal erythemal dose). A Beckman Coulter DU-640 spectrophotometer at a scan speed of 120 nm/min was used for this study. All spectra were recorded from 200 to 600 nm.

[3] = Solubility of Avobenzone in Oxynex ST + HMS on storage; assay type: physicochemical; design: key: Ppt = precipitate
Protocol: The solubility of Avobenzone was tested in various ratios of Oxynex® ST and HMS.

[4] = In vitro critical wavelength and SPF; settings: Avobenzone (2%) in the presence of HMS (6%) and Oxynex ST (2%)
Protocol: The target SPF range can be achieved with a combination of both inorganic and organic chromophoric compounds. SPF is determined by techniques well known in the art, on human skin as described in the Federal Register, Aug. 25, 1978, Vol. 43, No. 166, pages 38259-38269 (Sunscreen Drug Products for Over-The-Counter Human Use, Food and Drug Administration). SPF values can also be approximated using in-vitro models as described, for example, in J. Soc. Cosmet. Chem. 44:127-133 (May/June 1989).

[5] = Solubility of Avobenzone in Oxynex ST + OMC on storage; assay type: physicochemical; design: key: Ppt = precipitate

antioxidant activity (IC50) [1]: 85 ± 8 mg/L
Compound: CCCCC(CC)COC(=O)C(=Cc1cc(OC)c(O)c(OC)c1)C(=O)OCC(CC)CCCC (stereo not drawn) [Oxynex ST, Di-(2-Ethylhexyl)-3,5-dimethoxy-4-hydroxy benzylidene malonate]

stabilization of Avobenzone ([2]; combined with Homosalate, ratio (w/w) 2:6:2): failed to stabilize
effect on the photostabilization of Avobenzone ([2]; photostabilizer used alone): practically no effect
Compound: CCCCC(CC)COC(=O)c1ccc2cc(C(=O)OCC(CC)CCCC)ccc2c1 (stereo not drawn) [TQ, Di-2-ethylhexyl-napthylate]

Solubility of Avobenzone in the Oxynex ® ST Photostabilizer + HMS ([3]; Avobenzone/Oxynex ST/HMS 15/15/70, storage 4° C., 1 week): Clear
Solubility of Avobenzone in the Oxynex ® ST Photostabilizer + HMS ([3]; Avobenzone/Oxynex ST/HMS 15/15/70, storage 4° C., 2 weeks): Crystal?
Solubility of Avobenzone in the Oxynex ® ST Photostabilizer + HMS ([3]; Avobenzone/Oxynex ST/HMS 15/15/70, storage 4° C., 3 weeks): Crystal?
Solubility of Avobenzone in the Oxynex ® ST Photostabilizer + HMS ([3]; Avobenzone/Oxynex ST/HMS 15/15/70, storage 4° C., 6 weeks): Ppt
Solubility of Avobenzone in the Oxynex ® ST Photostabilizer + HMS ([3]; Avobenzone/Oxynex ST/HMS 15/15/70, storage 4° C., 24 hr): Clear
Solubility of Avobenzone in the Oxynex ® ST Photostabilizer + HMS ([3]; Avobenzone/Oxynex ST/HMS 15/15/70, storage RT, 1 week): Clear
Solubility of Avobenzone in the Oxynex ® ST Photostabilizer + HMS ([3]; Avobenzone/Oxynex ST/HMS 15/15/70, storage RT, 2 weeks): Clear
Solubility of Avobenzone in the Oxynex ® ST Photostabilizer + HMS ([3]; Avobenzone/Oxynex ST/HMS 15/15/70, storage RT, 3 weeks): Clear
Solubility of Avobenzone in the Oxynex ® ST Photostabilizer + HMS ([3]; Avobenzone/Oxynex ST/HMS 15/15/70, storage RT, 6 weeks): Clear
Solubility of Avobenzone in the Oxynex ® ST Photostabilizer + HMS ([3]; Avobenzone/Oxynex ST/HMS 15/15/70, storage RT, 24 hr): Clear
Solubility of Avobenzone in the Oxynex ® ST Photostabilizer + HMS ([3]; Avobenzone/Oxynex ST/HMS 20/20/60, storage 4° C., 1 week): Clear
Solubility of Avobenzone in the Oxynex ® ST Photostabilizer + HMS ([3]; Avobenzone/Oxynex ST/HMS 20/20/60, storage 4° C., 2 weeks): Crystal?
Solubility of Avobenzone in the Oxynex ® ST Photostabilizer + HMS ([3]; Avobenzone/Oxynex ST/HMS 20/20/60, storage 4° C., 3 weeks): Crystal?
Solubility of Avobenzone in the Oxynex ® ST Photostabilizer + HMS ([3]; Avobenzone/Oxynex ST/HMS 20/20/60, storage 4° C., 6 weeks): Ppt
Solubility of Avobenzone in the Oxynex ® ST Photostabilizer + HMS ([3]; Avobenzone/Oxynex ST/HMS 20/20/60, storage 4° C., 24 hr): Clear
Solubility of Avobenzone in the Oxynex ® ST Photostabilizer + HMS ([3]; Avobenzone/Oxynex ST/HMS 20/20/60, storage RT, 1 week): Clear
Solubility of Avobenzone in the Oxynex ® ST Photostabilizer + HMS ([3]; Avobenzone/Oxynex ST/HMS 20/20/60, storage RT, 2 weeks): Clear
Solubility of Avobenzone in the Oxynex ® ST Photostabilizer + HMS ([3]; Avobenzone/Oxynex ST/HMS 20/20/60, storage RT, 3 weeks): Clear
Solubility of Avobenzone in the Oxynex ® ST Photostabilizer + HMS ([3]; Avobenzone/Oxynex ST/HMS 20/20/60, storage RT, 6 weeks): Clear
Solubility of Avobenzone in the Oxynex ® ST Photostabilizer + HMS ([3]; Avobenzone/Oxynex ST/HMS 20/20/60, storage RT, 24 hr): Clear
Solubility of Avobenzone in the Oxynex ® ST Photostabilizer + HMS ([3]; Avobenzone/Oxynex ST/HMS 25/25/50, storage 4° C., 1 week): Ppt
Solubility of Avobenzone in the Oxynex ® ST Photostabilizer + HMS ([3]; Avobenzone/Oxynex ST/HMS 25/25/50, storage 4° C., 2 weeks): Ppt
Solubility of Avobenzone in the Oxynex ® ST Photostabilizer + HMS ([3]; Avobenzone/Oxynex ST/HMS 25/25/50, storage 4° C., 3 weeks): Ppt
Solubility of Avobenzone in the Oxynex ® ST Photostabilizer + HMS ([3]; Avobenzone/Oxynex ST/HMS 25/25/50, storage 4° C., 6 weeks): Ppt
Solubility of Avobenzone in the Oxynex ® ST Photostabilizer + HMS ([3]; Avobenzone/Oxynex ST/HMS 25/25/50, storage 4° C., 24 hr): Clear
Solubility of Avobenzone in the Oxynex ® ST Photostabilizer + HMS ([3]; Avobenzone/Oxynex ST/HMS 25/25/50, storage RT, 1 week): Clear
Solubility of Avobenzone in the Oxynex ® ST Photostabilizer + HMS ([3]; Avobenzone/Oxynex ST/HMS 25/25/50, storage RT, 2 weeks): Crystal?
Solubility of Avobenzone in the Oxynex ® ST Photostabilizer + HMS ([3]; Avobenzone/Oxynex ST/HMS 25/25/50, storage RT, 3 weeks): Ppt
Solubility of Avobenzone in the Oxynex ® ST Photostabilizer + HMS ([3]; Avobenzone/Oxynex ST/HMS 25/25/50, storage RT, 6 weeks): Ppt
Solubility of Avobenzone in the Oxynex ® ST Photostabilizer + HMS ([3]; Avobenzone/Oxynex ST/HMS 25/25/50, storage RT, 24 hr): Clear
Solubility of Avobenzone in the Oxynex ® ST Photostabilizer + HMS ([3]; Avobenzone/Oxynex ST/HMS 30/30/40, storage 4° C., 1 week): Ppt
Solubility of Avobenzone in the Oxynex ® ST Photostabilizer + HMS ([3]; Avobenzone/Oxynex ST/HMS 30/30/40, storage 4° C., 2 weeks): Ppt
Solubility of Avobenzone in the Oxynex ® ST Photostabilizer + HMS ([3]; Avobenzone/Oxynex ST/HMS 30/30/40, storage 4° C., 3 weeks): Ppt
Solubility of Avobenzone in the Oxynex ® ST Photostabilizer + HMS ([3]; Avobenzone/Oxynex ST/HMS 30/30/40, storage 4° C., 6 weeks): Ppt
Solubility of Avobenzone in the Oxynex ® ST Photostabilizer + HMS ([3]; Avobenzone/Oxynex ST/HMS 30/30/40, storage 4° C., 24 hr): Clear
Solubility of Avobenzone in the Oxynex ® ST Photostabilizer + HMS ([3]; Avobenzone/Oxynex ST/HMS 30/30/40, storage RT, 1 week): Ppt
Solubility of Avobenzone in the Oxynex ® ST Photostabilizer + HMS ([3]; Avobenzone/Oxynex ST/HMS 30/30/40, storage RT, 2 weeks): Ppt
Solubility of Avobenzone in the Oxynex ® ST Photostabilizer + HMS ([3]; Avobenzone/Oxynex ST/HMS 30/30/40, storage RT, 3 weeks): Ppt
Solubility of Avobenzone in the Oxynex ® ST Photostabilizer + HMS ([3]; Avobenzone/Oxynex ST/HMS 30/30/40, storage RT, 6 weeks): Ppt
Solubility of Avobenzone in the Oxynex ® ST Photostabilizer + HMS ([3]; Avobenzone/Oxynex ST/HMS 30/30/40, storage RT, 24 hr): Clear
Avobenzone stability [2]: 24%
Solubility of Avobenzone in the Oxynex ® ST Photostabilizer + OMC ([5]; Avobenzone/Oxynex ST/OMC 20/20/60, storage 4° C., 1 week): Clear
Solubility of Avobenzone in the Oxynex ® ST Photostabilizer + OMC ([5]; Avobenzone/Oxynex ST/OMC 20/20/60, storage 4° C., 2 weeks): Crystal?
Solubility of Avobenzone in the Oxynex ® ST Photostabilizer + OMC ([5]; Avobenzone/Oxynex ST/OMC 20/20/60, storage 4° C., 48 hr): Clear
Solubility of Avobenzone in the Oxynex ® ST Photostabilizer + OMC ([5]; Avobenzone/Oxynex ST/OMC 20/20/60, storage RT, 1 week): Clear
Solubility of Avobenzone in the Oxynex ® ST Photostabilizer + OMC ([5]; Avobenzone/Oxynex ST/OMC 20/20/60, storage RT, 2 weeks): Clear
Solubility of Avobenzone in the Oxynex ® ST Photostabilizer + OMC ([5]; Avobenzone/Oxynex ST/OMC 20/20/60, storage RT, 48 hr): Clear
Solubility of Avobenzone in the Oxynex ® ST Photostabilizer + OMC ([5]; Avobenzone/Oxynex ST/OMC 25/25/50, storage 4° C., 1 week): Ppt
Solubility of Avobenzone in the Oxynex ® ST Photostabilizer + OMC ([5]; Avobenzone/Oxynex ST/OMC 25/25/50, storage 4° C., 2 weeks): Ppt
Solubility of Avobenzone in the Oxynex ® ST Photostabilizer + OMC ([5]; Avobenzone/Oxynex ST/OMC 25/25/50, storage 4° C., 48 hr): Clear
Solubility of Avobenzone in the Oxynex ® ST Photostabilizer + OMC ([5]; Avobenzone/Oxynex ST/OMC 25/25/50, storage RT, 1 week): Clear
Solubility of Avobenzone in the Oxynex ® ST Photostabilizer + OMC ([5]; Avobenzone/Oxynex ST/OMC 25/25/50, storage RT, 2 weeks): Crystal?
Solubility of Avobenzone in the Oxynex ® ST Photostabilizer + OMC ([5]; Avobenzone/Oxynex ST/OMC 25/25/50, storage RT, 48 hr): Clear
Solubility of Avobenzone in the Oxynex ® ST Photostabilizer + OMC ([5]; Avobenzone/Oxynex ST/OMC 30/20/50, storage 4° C., 48 hr): Few
Solubility of Avobenzone in the Oxynex ® ST Photostabilizer + OMC ([5]; Avobenzone/Oxynex ST/OMC 30/20/50, storage RT, 48 hr): Few
Compound: COc1ccc(C(=O)CC(=O)c2ccc(C(C)(C)C)cc2)cc1 [Avobenzone, 4-(tert-butyl)-4′-methoxydibenzoylmethane]
SPF [4]: > 30
critical wavelength [4]: appropriate
